Results: US20230310293A1, “COOLING SENSATION COMPOSITIONS” (GIVAUDAN SA, priority 2020, published 2023)

Assay: Solubility of non-natural cooling compounds in lactic acid
Format: physicochemical
Conditions: warmed to about 50° C. with gentle agitation for 1 hour per step, highest tested weight % that dissolved
Experimental: Into a 20ml vial 0.4 g of the respective non-natural cooling compound as indicated in Table 1 below have been added followed by the addition of 1.6 g lactic acid. The vial was warmed to about 50° C. with gentle agitation for 1 hour. If the respective non-natural cooling compound hasn’t dissolved, 2 g lactic acid was added (resulting in a composition comprising 10 weight % of a non-natural cooling compound), and again gentle agitated for an additional hour at about 50° C. If the non-natural cooling compound still hasn’t dissolved, 4 g of lactic acid was added (resulting in a composition comprising 5 weight % of anon-natural cooling compound), and again gentle agitated for an additional hour at about 50° C.
If the non-natural cooling compound still has not dissolved, the procedure above has been repeated, starting with 0.05 g of the non-natural cooling compound and 0.95 g of lactic acid. If still not dissolved, 1 g lactic acid was added (resulting in a composition comprising 2.5 weight % of a non-natural cooling compound). If still not dissolved further solvent was added.
If 0.4 g the non-natural cooling compound dissolved in 1.6 g lactic acid, the procedure above has been repeated, starting with 1 g of the non-natural cooling compound and 1 g lactic acid. If the respective non-natural cooling compound hasn’t dissolved, 0.5 g lactic acid was added (resulting in a composition comprising 40 weight % of a non-natural cooling compound), and again gentle agitated for an additional hour at about 50° C. If the non-natural cooling compound still hasn’t dissolved, 0.83 g of lactic acid was added (resulting in a composition comprising 30 weight % of anon-natural cooling compound), and again gentle agitated for an additional hour at about 50° C.

Soluble solution (solubility of non-natural cooling compound in lactic acid) | Structure (SMILES)
30 wt % | C=CC(C)(C)C(=O)N1CCCCC1c1ncc(-c2ccc(C)cc2)[nH]1 (stereo not shown) [2,2-dimethyl-1-(2-(5-(p-tolyl)-1H-imidazol-2-yl)piperidin-1-yl)but-3-en-1-one]
5 wt% wt % | CCc1ccc(OCC(=O)N(Cc2cccs2)c2cc[nH]n2)cc1 [2-(4-ethylphenoxy)-N-(1H-pyrazol-3-yl)-N-(thiophen-2-ylmethyl)acetamide]
50 wt % | CSC(C)C(=O)N1CCCCC1c1ncc(-c2ccc(C)cc2)[nH]1 (stereo not shown) [2-(methylthio)-1-(2-(5-(p-tolyl)imidazol-2-yl)piperidin-1-yl)propan-1-one]
20 wt % | CC1CCC(C(C)C)C(C(=O)NCCc2ccccn2)C1 (stereo not shown) [2-isopropyl-5-methyl-N-(2-(pyridin-2-yl)ethyl)cyclohexane-1-carboxamide]
20 wt% wt % | CC1CCC(C(C)C)C(OC(=O)C(C)O)C1 (stereo not shown) [2-isopropyl-5-methylcyclohexyl 2-hydroxypropanoate]
20 wt% wt % | CNC(=O)C(C)(C(C)C)C(C)C [2-isopropyl-N,2,3-trimethylbutanamide]
50 wt % | CCC(C)C(=O)N1CCCCC1c1ncc(-c2ccc(C)cc2)[nH]1 (stereo not shown) [2-methyl-1-(2-(5-(p-tolyl)-1H-imidazol-2-yl)piperidin-1-yl)butan-1-one]
40 wt % | CSC(C)(C)C(=O)N1CCCCC1c1ncc(-c2ccc(C)cc2)[nH]1 (stereo not shown) [2-methyl-2-(methylthio)-1-(2-(5-(p-tolyl)-1H-imidazol-2-yl)piperidin-1-yl)propan-1-one]
30 wt % | Cc1ccc(OCC(=O)N(Cc2cccs2)c2ccn[nH]2)cc1 [N-(1H-pyrazol-3-yl)-N-(thiophen-2-ylmethyl)-2-(p-tolyloxy)acetamide]
5 wt% wt % | CC(C)C1CCC(C)(C)CC1C(=O)NCC(O)c1ccccc1 (stereo not shown) [N-(2-hydroxy-2-phenylethyl)-2-isopropyl-5,5-dimethylcyclohexane-1-carboxamide]
2.5 wt% wt % | CC1CCC(C(C)C)C(C(=O)Nc2ccc(CC(N)=O)cc2)C1 (stereo not shown) [N-(4-(2-amino-2-oxoethyl)phenyl)-2-isopropyl-5-methylcyclohexane-1-carboxamide]
10 wt% wt % | CCNC(=O)C1CC(C)CCC1C(C)C (stereo not shown) [N-Ethyl-p-menthane-3-carboxamide]
20 wt% wt % | CCOC(=O)CNC(=O)C1CC(C)CCC1C(C)C (stereo not shown) [ethyl (2-isopropyl-5-methylcyclohexane-1-carbonyl)glycinate]
